According to ChEMBL document CHEMBL1129912, “Functionalized azoles and triazolo[1,5-a]pyrimidines as latent leishmanicides” (Bioorg Med Chem Lett, 1997):

What was measured:
[1] = tested on: Leishmania donovani; experiment: The in vitro leishmanicidal activity by measuring the 3H thymidine incorporation in promastigotes of Leishmania donovani at 200 uM concentration; assay type: functional
[2] = tested on: Leishmania donovani; experiment: The in vitro leishmanicidal activity by measuring the 3H thymidine incorporation in promastigotes of Leishmania donovani; assay type: functional, organism-based
[3] = tested on: Leishmania donovani; experiment: The in vitro leishmanicidal activity by measuring the 3H thymidine incorporation in promastigotes of Leishmania donovani at 100 uM concentration; assay type: functional

SMILES	Growth inhibition [1] [%]	IC50 [2] [nM]	Growth inhibition [3] [%]
CCOC(=O)c1cnc2nc(NS(=O)(=O)c3ccc(Cl)cc3)nn2c1O	0		
CSc1nc2nc(NS(=O)(=O)c3ccc(Cl)cc3)nn2c(N)c1C#N	17		
O=S(=O)(Nc1nc2nc(-c3ccccc3)cc(-c3ccccc3)n2n1)c1ccc(Cl)cc1	98	2000	
Cc1ccc(S(=O)(=O)Nc2nc3nc(-c4ccccc4)cc(O)n3n2)cc1	100	2000	
Nc1ccc(S(=O)(=O)Nc2nc3ccccc3[nH]2)cc1	80	10500	
Nc1n[nH]c(NS(=O)(=O)c2ccccc2)n1	97	2000	
Cc1ccc(S(=O)(=O)Nc2nc3nc(C)cc(C)n3n2)cc1	100	1500	
O=S(=O)(Nc1nc2nc3c(c(O)n2n1)CCC3)c1ccc(Cl)cc1	15		
N#Cc1cnc2nc(NS(=O)(=O)c3ccc(Cl)cc3)nn2c1N	0		
N=C(N)c1ccc(OCCCCCOc2ccc(C(=N)N)cc2)cc1 [PENTAMIDINE]		760	100
Nc1ccc(S(=O)(=O)Nc2nc3ccccc3o2)cc1	74	6400	
Cc1cc(O)n2nc(NS(=O)(=O)c3ccc(Cl)cc3)nc2n1	5		
Cc1cc(C)n2nc(NS(=O)(=O)c3ccc(Cl)cc3)nc2n1	3		
Cc1ccc2nc(NS(=O)(=O)c3ccc(N)cc3)oc2c1	92.6	15500	
CCOC(=O)c1cnc2nc(NS(=O)(=O)c3ccc(Cl)cc3)nn2c1N	0		
